Measured values reported in US12221439B2, “Tetrahydropyridopyrimidine derivatives as AhR modulators” (JAGUAHR THERAPEUTICS PTE LTD, priority 2018, dated 2025).

Assays:
[1] = molecular target: CYP1A1 (Homo sapiens (Human), UniProt P04798); experiment: CYP1A1 inhibition assay (Promega P450-Glo, Cypex bactosomes); assay type: biochemical; settings: direct CYP1A1 inhibition, Luciferin-CEE 30 μM, NADPH, 37° C., arithmetic mean of pIC50
Experimental: In Vitro Assay 22: […] Inhibition Assay
The direct CYP1A1 inhibitory activity of test compounds was also assessed using the Promega P450-Glo™ assay system. Seven concentrations of test compound were added to a ½ area white 96 well plate. Cypex […]. bactosomes ([final] 0.5 pmol) and CYPA substrate Luciferin-CEE ([final] 30 μM) were prepared in 0.1M potassium phosphate buffer and incubated with test compounds at 37° C. for 5 minutes. 0.2m NADPH was then added to the plates and incubated at 37° C., for 10 minutes. The reaction was stopped by adding luciferin detection reagent and luminescence was read after 20 minutes.

[2] = molecular target: AhR (Homo sapiens (Human), UniProt P35869); experiment: AhR antagonism in U937 cells (Promega P450-Glo assay); assay type: cell-based; settings: inhibition of agonist (KYNA) response, CYP1A1 activity readout (Luciferin-CEE), 24 hrs, arithmetic mean of pIC50
Sequence of AhR (P35869 11-848): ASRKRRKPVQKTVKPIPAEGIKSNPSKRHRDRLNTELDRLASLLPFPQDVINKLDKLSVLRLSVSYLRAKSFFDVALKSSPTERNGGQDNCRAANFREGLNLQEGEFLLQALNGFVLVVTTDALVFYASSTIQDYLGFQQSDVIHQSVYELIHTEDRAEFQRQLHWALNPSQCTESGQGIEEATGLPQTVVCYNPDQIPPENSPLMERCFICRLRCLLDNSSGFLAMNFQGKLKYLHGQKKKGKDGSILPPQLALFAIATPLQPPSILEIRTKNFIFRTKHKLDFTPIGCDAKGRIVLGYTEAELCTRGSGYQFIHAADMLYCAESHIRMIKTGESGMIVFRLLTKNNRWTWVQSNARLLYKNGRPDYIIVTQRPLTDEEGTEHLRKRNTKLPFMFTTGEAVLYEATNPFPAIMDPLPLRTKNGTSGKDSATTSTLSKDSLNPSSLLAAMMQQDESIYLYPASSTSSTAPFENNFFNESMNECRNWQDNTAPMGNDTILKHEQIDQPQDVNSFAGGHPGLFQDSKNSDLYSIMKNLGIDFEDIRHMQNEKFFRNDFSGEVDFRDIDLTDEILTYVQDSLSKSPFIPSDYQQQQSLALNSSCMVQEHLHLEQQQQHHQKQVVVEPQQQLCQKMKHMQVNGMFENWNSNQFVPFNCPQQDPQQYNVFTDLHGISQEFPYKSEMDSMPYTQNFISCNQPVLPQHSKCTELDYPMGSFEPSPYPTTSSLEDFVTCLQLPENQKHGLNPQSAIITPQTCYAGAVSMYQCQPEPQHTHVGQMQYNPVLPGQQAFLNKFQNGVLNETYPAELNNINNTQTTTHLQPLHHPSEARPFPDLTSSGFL
Experimental: Examples were tested in selected biological assays two or more times. Data are reported as the arithmetic mean of the pIC50 (−log10IC50) values, where IC50 is defined as the concentration of compound producing a 50% inhibition of the agonist (KYNA) response.
In Vitro Assay 1: AhR Antagonism in U937 Cells (Promega P450-Glo™ Assay)
AhR antagonism was assessed in U937 cells (myeloid lineage cell line derived from a human histiocytic lymphoma).). Ligand binds the AhR in the cytoplasm, and the AhR-ligand complex translocates to the nucleus and forms a heterodimer with AhR nuclear translocator (Arnt). This complex binds the xenobiotic response element (XRE) in the 5′ upstream region of the CYP1A1 promoter, enhancing CYP1A1 expression. CYP1A1 activity is subsequently determined by assessing the conversion of Luciferin-CEE to luciferin, which in turn reacts with luciferase to produce light. The amount of light produced is directly proportional to cytochrome P450 activity. U937 cells in Ultraculture serum free media (Lonza) were plated at 100,000 cells per well in a round bottom 96 well tissue culture plate. Seven concentrations of test compound (final [DMSO] 1%) were added and incubated for 10 minutes before the addition of […] KYNA. The plates were then placed in an incubator at 37° C., >85% humidity, 5% CO2 for 24 hrs. After aspiration of the supernatant the CYP1A1 substrate Luciferin-CEE ([Final] 83 μM) was added and incubated for 3 hrs before the reaction was stopped by adding luciferin detection reagent and luminescence was read after 20 minutes.

Sequence of CYP1A1 (P04798 whole entry): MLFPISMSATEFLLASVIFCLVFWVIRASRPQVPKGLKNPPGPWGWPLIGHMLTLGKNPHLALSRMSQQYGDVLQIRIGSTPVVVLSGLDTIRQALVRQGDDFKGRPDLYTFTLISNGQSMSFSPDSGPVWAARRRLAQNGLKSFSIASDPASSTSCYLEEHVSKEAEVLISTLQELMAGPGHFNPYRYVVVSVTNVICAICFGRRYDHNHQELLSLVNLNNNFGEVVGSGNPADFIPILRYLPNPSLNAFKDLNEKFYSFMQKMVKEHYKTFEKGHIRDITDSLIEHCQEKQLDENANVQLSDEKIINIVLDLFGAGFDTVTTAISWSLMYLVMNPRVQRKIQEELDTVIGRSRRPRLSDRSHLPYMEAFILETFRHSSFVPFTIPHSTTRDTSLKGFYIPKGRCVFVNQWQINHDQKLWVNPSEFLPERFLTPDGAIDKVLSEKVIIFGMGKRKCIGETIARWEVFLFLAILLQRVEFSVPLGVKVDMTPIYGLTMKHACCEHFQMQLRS

| SMILES | cyp1A1 pIC50 [1] | IC50 [2] |
| --- | --- | --- |
| Cc1cncc(-c2nc3c(c(NCCc4c[nH]c5ccccc45)n2)CNCC3)c1 [Example 26, N-(2-(1H-indol-3-yl)ethyl)-2-(5-methylpyridin-3-yl)-5,6,7,8-tetrahydro pyrido[4,3-d]pyrimidin-4-amine] | 7.2 | 6.17 nM |
| Clc1cncc(-c2nc3c(c(NCCc4c[nH]c5ccccc45)n2)CNCC3)c1 [Example 27, N-(2-(1H-indol-3-yl)ethyl)-2-(5-chloropyridin-3-yl)-5,6,7,8-tetrahydropyrido[4,3-d]pyrimidin-4-amine] | 7.2 | 4.47 nM |
| Fc1cncc(-c2nc3c(c(NCCc4nc5ccccc5[nH]4)n2)CNCC3)c1 [Example 28, N-(2-(1H-benzo[d]imidazol-2-yl)ethyl)-2-(5-fluoropyridin-3-yl)-5,6,7,8-tetrahydropyrido[4,3-d]pyrimidin-4-amine] | 5.5 | > 10000 nM |
| Fc1cncc(-c2nc3c(c(NCCc4c[nH]c5cc(F)ccc45)n2)CCNC3)c1 [Example 29, N-(2-(6-fluoro-1H-indol-3-yl)ethyl)-2-(5-fluoropyridin-3-yl)-5,6,7,8-tetrahydropyrido[3,4-d]pyrimidin-4-amine] | 6.7 | 7.94 nM |
| Fc1cncc(-c2nc3c(c(NCCc4c[nH]c5ccc(F)cc45)n2)CCNC3)c1 [Example 30, N-(2-(5-fluoro-1H-indol-3-yl)ethyl)-2-(5-fluoropyridin-3-yl)-5,6,7,8-tetrahydropyrido [3,4-d]pyrimidin-4-amine] | 6.5 | 26.3 nM |
| Fc1cncc(-c2nc3c(c(NCCc4c[nH]c5cc(F)ccc45)n2)CNCC3)c1 [Example 31, N-(2-(6-fluoro-1H-indol-3-yl)ethyl)-2-(5-fluoropyridin-3-yl)-5,6,7,8-tetrahydropyrido[4,3-d]pyrimidin-4-amine] | 7.2 | 5.13 nM |
| Fc1cncc(-c2nc3c(c(NCCc4c[nH]c5ccc(F)cc45)n2)CNCC3)c1 [Example 32, N-(2-(5-fluoro-1H-indol-3-yl)ethyl)-2-(5-fluoropyridin-3-yl)-5,6,7,8-tetrahydropyrido[4,3-d]pyrimidin-4-amine] | 7.1 | 6.03 nM |
